Measurements published in patent US4061645A, “2-Trichloromethyl-5-methylsulfinyl-1,3,4-thiadiazole” (Schering Aktiengesellschaft, priority 1972, dated 1977).
Like-named read-outs stand apart in the source and are kept apart here.

Experiments:
Pythium ultimum [1] = test: Limit concentration of soil-fungicidal effectiveness, Pythium ultimum, infested soil seeded with peas (Example 1); format: in vivo; details: 20 to 23 days, 22°-25° C
Protocol: (§1) Limit concentrations of the soil-fungicidal effectiveness at homogeneous mixture of the products with the infested soil. Basic condition in the evaluation are a sound root formation without fungus necroses and germination of the seed of at least 90% compared with the result obtained in steamed soil. Per concentration there were seeded 25 grains of peas of the variety "Miracle of Kelvedon" (marrow pea) without a waiting period. The cultivation time in the tests was 20 to 23 days at a temperature of 22°-25° C. Four commercial products were included in the test series.
Pythium ultimum: -- Steamed compost soil was inoculated with mycelium of Pythium ultimum

Rhizoctonia solani [2] = test: Limit concentration of soil-fungicidal effectiveness, Rhizoctonia solani, infested soil seeded with peas (Example 1); format: in vivo; details: for minimal effective concentration: soil, 480 h, read-out: Limit concentration of the fungicidal effectiveness
Protocol: as §1
Rhizoctania solani: -- Steamed compost soil was inoculated with mycelium of Rhizoctonia solani.

Pythium ultimum [3] = test: Pythium ultimum infested compost soil, marrow peas (Example 2); format: in vivo; details: for Number of sound peas after 3 wks.: of 25 grains
Source text: Steamed compost soil was inoculated with mycelium of Pythium ultimum.

Rhizoctonia solani [4] = test: Rhizoctonia solani infested compost soil, marrow peas (Example 3); format: in vivo; details: for Weight of fresh plant / Root evaluation (1-4): 3 weeks; for Number of sound peas after 3 wks.: of 25 grains
Source text: Steamed compost soil was inoculated with mycelium of Rhizoctonia solani. After homogeneous mixture of the products with the infested soil, the products were present in the form of 20% powder preparations, the seeding of 25 grains of marrow peas of the variety "Miracle of Kelvedon" per concentration was effected without waiting period in clay dishes holding 1 liter of soil. The table lists the number of germinated sound peas, the weight of the fresh plant, and a root evaluation after a cultivation period of three weeks at 22°-25° C.

[5] = system: Fusarium oxysporum f. callistephi; test: Fusarium infested compost soil, Callistephus chinesis seedlings (Example 5); format: in vivo; details: of 4 seedlings
Source text: Steamed compost soil was inoculated with a spore suspension of Fusarium oxysporum f. callistephi. After homogeneous mixture of the products with the infested soil, the products were present as 20% powder preparations, and after a waiting period of 8 days, there were set out per concentration 4 seedlings of Callistephus chinesis, master aster "Sun Ray" as host plants.

Asperqilus niger = test: Agar test (Example 7), Aspergillus; format: cell-based; details: 10 ppm; 5 days at 22° C; control 100
Protocol: (§2) The fungicidal action of the agents according to the invention was tested in artificial nutrient media against plant-pathogenic fungi in Petri dishes (agar test). The procedure was to sterilize the medium consisting of 2% malt extract and 1.5% agar-agar powder. Before the solidification of the medium, the active substances were added to it, mixing thoroughly, so that the medium received 10 parts of active substance per million (ppm). After the solidification of the medium, the latter was inoculated with a platinum dropper which contained 100 spores each of the fungi to be tested, and after five days at 22° C, an evaluation was made by measuring the diameter of the colonies in mm.

Botrytis cinerea = test: Agar test (Example 7), Botrytis; format: cell-based; details: 10 ppm; 5 days at 22° C; control 100
Protocol: as §2

[6] = system: Colletotrichum gloeosporioides; test: Agar test (Example 7), Colletotrichum; format: cell-based; details: 10 ppm; 5 days at 22° C; control 100
Protocol: as §2

Helminthosporium sativum = test: Agar test (Example 7), Helminthosporium; format: cell-based; details: 10 ppm; 5 days at 22° C; control 100
Protocol: as §2

Stemphylium ilicis = test: Agar test (Example 7), Stemphylium; format: cell-based; details: 10 ppm; 5 days at 22° C; control 100
Protocol: as §2

Thielaviopsis basicola = test: Control of Thielaviopsis basicola on tobacco (Example 10); format: in vivo; design: key to Attack 0-5: 0: no attack; 1: very slight attack; 2: slight attack; 3: medium attack; 4: strong attack; 5: very strong attack; details: five weeks
Protocol: Control of Thielaviopsis basicola on tobacco.
A 10% powder preparation of 2-trifluoromethyl-5-methylsulfonyl-1,3,4-thiadiazole was homogeneously admixed to a soil heavily infested by Thielaviopsis basicola. After a reaction time of one week, tobacco seedlings of the variety Nicotiana tabacum var. "White Burley" were set out and cultivated for five weeks in the greenhouse at 22°-32° C. The attack and weight of the fresh plant are evident from the table.

Damping-off Fungi = test: Cotton seed disinfection, normal compost soil (Example 6); format: in vivo; details: 100 mg active ingr. per kg of seed; 10% formulation; 15 days
Protocol: Cotton seeds disinfected with 10% formulations were seeded in normal compost soil (Damping-off Fungi), 25 grains per concentration. After a cultivation time of 15 days at 22°-25° C, the number of germinated sound cotton seedlings and their weight as fresh plants were determined.

Meloidogyne incognita = test: Nematocidal action, infested compost soil, cucumber seeds (Example 8); format: in vivo; details: 30 days
Protocol: The products as 20% powder preparations were homogeneously admixed with a compost soil heavily infested by root gal nematodes. Without a waiting period, 20 cucumber seeds per concentration were seeded. After a cultivation time of 30 days at a temperature of 23°-25° C, the nematocidal action was evaluated by counting the root galls formed in the waterbath. The following table states the reduction of attack in percent. In the control, an average of 90 root galls per seedling had formed.

[7] = 200 mg active ingr. per liter of soil, 3 weeks
[8] = 10 mg active ingr. per liter of soil
[9] = 20 mg active ingr. per liter of soil
[10] = 30 mg active ingr. per liter of soil
[11] = 40 mg active ingr. per liter of soil
[12] = 50 mg active ingredient per liter of soil
[13] = 100 mg active ingredient per liter of soil
[14] = 10 mg active ingr. per liter of soil, 3 weeks
[15] = 20 mg active ingr. per liter of soil, 3 weeks
[16] = 30 mg active ingr. per liter of soil, 3 weeks
[17] = 50 mg active ingr. per liter of soil
[18] = 100 mg active ingr. per liter of soil

Compound | Limit concentration of the fungicidal effectiveness (Pythium ultimum [1]) | Weight of fresh plant (Rhizoctonia solani [4]; [8]) [g] | Number of sound peas after 3 wks. (Rhizoctonia solani [4]; [8]) | Weight of fresh plant (Rhizoctonia solani [4]; [9]) [g] | Number of sound peas after 3 wks. (Rhizoctonia solani [4]; [9]) | Weight of fresh plant (Rhizoctonia solani [4]; [10]) [g] | Number of sound peas after 3 wks. (Rhizoctonia solani [4]; [10]) | Number of attacked plants after 3 weeks [5, 12] | Number of attacked plants after 3 weeks [5, 13] | minimal effective concentration (Rhizoctonia solani [2]; 20 to 23 days, 22°-25° C) [µg/mL] | Weight of fresh plant (Pythium ultimum [3]; [14]) [g] | Number of sound peas after 3 wks. (Pythium ultimum [3]; [8]) | Weight of fresh plant (Pythium ultimum [3]; [15]) [g] | Number of sound peas after 3 wks. (Pythium ultimum [3]; [9]) | Weight of fresh plant (Pythium ultimum [3]; [16]) [g] | diameter of the colonies (Asperqilus niger) [mm] | diameter of the colonies (Botrytis cinerea) [mm] | diameter of the colonies [6] [mm] | diameter of the colonies (Helminthosporium sativum) [mm] | diameter of the colonies (Stemphylium ilicis) [mm] | other results
COc1cc(Cl)c(OC)cc1Cl [1,4-dichloro-2,5-dimethoxy-benzene, 1,4-dichloro-2,5-dimethoxybenzene, reference compound] | insufficient | 0 | 0 | 0 | 0 | 18 | 21 | 4 | 4 | – | – | – | – | – | – | – | – | – | – | – | minimal effective concentration (Rhizoctonia solani [2]): 30 µg/mL; Root evaluation (1-4) (Pythium ultimum [3]; [7]): 1; Weight of fresh plant (Pythium ultimum [3]; [7]): 1 g; Number of sound peas after 3 wks. (Pythium ultimum [3]; 200 mg active ingr. per liter of soil): 2; Root evaluation (1-4) (Rhizoctonia solani [4]; [10]): 4; Root evaluation (1-4) (Rhizoctonia solani [4]; [11]): 4; Weight of fresh plant (Rhizoctonia solani [4]; [11]): 18 g; Number of sound peas after 3 wks. (Rhizoctonia solani [4]; [11]): 22; Number of attacked plants after 3 weeks ([5]; 200 mg active ingredient per liter of soil): 4
CS(=O)(=O)c1nnc(C(F)(F)F)s1 [Compound 1, 2-trifluoromethyl-5-methylsulfonyl-1,3,4-thiadiazole] | – | – | – | – | – | – | – | – | – | 25 | 20 | 25 | 19 | 22 | 19 | 0 | 0 | 0 | 0 | 0 | Number of sound peas after 3 wks. (Pythium ultimum [3]; [10]): 23; Attack 0-5 (Thielaviopsis basicola; [9]): 0.5; Weight of fresh plant (leaves and stems) (Thielaviopsis basicola; [9]): 115 g; Weight of roots (air-dry) (Thielaviopsis basicola; [9]): 11 g; Attack 0-5 (Thielaviopsis basicola; [10]): 0; Weight of fresh plant (leaves and stems) (Thielaviopsis basicola; [10]): 118 g; Weight of roots (air-dry) (Thielaviopsis basicola; [10]): 11 g; Attack 0-5 (Thielaviopsis basicola; [11]): 0; Weight of fresh plant (leaves and stems) (Thielaviopsis basicola; [11]): 104 g; Weight of roots (air-dry) (Thielaviopsis basicola; [11]): 9 g
C[S+]([O-])c1nnc(C(Cl)Cl)s1 (stereo not shown) [Compound 3, 2-dichloromethyl-5-methylsulfinyl-1,3,4-thiadiazole] | – | 0 | 0 | 2 | 2 | 21 | 22 | 0 | 0 | 30 | 22 | 24 | 24 | 24 | 22 | 50 | 36 | 0 | 0 | 0 | Number of sound peas after 3 wks. (Pythium ultimum [3]; [10]): 25; Sound plants in % (Damping-off Fungi): 100%; Weight of fresh plant (Damping-off Fungi): 29 g; Nematocidal action in % (reduction of attack) (Meloidogyne incognita; 40 mg per liter of soil): 100%; Nematocidal action in % (reduction of attack) (Meloidogyne incognita; 60 mg per liter of soil): 100%
C[S+]([O-])c1nnc(C(Cl)(Cl)Cl)s1 (stereo not shown) [Compound 8, 2-trichloromethyl-5-methylsulfinyl-1,3,4-thiadiazole] | – | 17 | 21 | 17 | 24 | 17 | 24 | 0 | 0 | 10 | 12 | 19 | 22 | 24 | 22 | 0 | 0 | 0 | 0 | 0 | Number of sound peas after 3 wks. (Pythium ultimum [3]; [10]): 25; Sound plants in % (Damping-off Fungi): 96%; Weight of fresh plant (Damping-off Fungi): 29 g
CS(=O)(=O)c1nnc(C(Cl)(Cl)Cl)s1 [Compound 21, 2-trichloromethyl-5-methylsulfonyl-1,3,4-thiadiazole] | – | 11 | 17 | 17 | 24 | 17 | 24 | 0 | 0 | 10 | – | – | – | – | – | 0 | 0 | 0 | 0 | 0 | Sound plants in % (Damping-off Fungi): 100%; Weight of fresh plant (Damping-off Fungi): 33 g
CCCCC(Br)c1nnc(S(C)(=O)=O)s1 (stereo not shown) [Compound 52, 2-(1-bromopentyl)-5-methylsulfonyl-1,3,4-thiadiazole] | no effect | – | – | – | – | – | – | – | – | 100 | – | – | – | – | – | – | – | – | – | – | –
CC(C)CC(Br)c1nnc(S(C)(=O)=O)s1 (stereo not shown) [Compound 53, 2-(1-bromoisopentyl)-5-methylsulfonyl-1,3,4-thiadiazole] | no effect | – | – | – | – | – | – | – | – | 100 | – | – | – | – | – | – | – | – | – | – | –
CS(=O)(=O)c1nnc(C(F)(F)Cl)s1 [Compound 54] | 10 mg of active substance per lit | – | – | – | – | – | – | – | – | – | – | – | – | – | – | – | – | – | – | – | Limit concentration of the fungicidal effectiveness (Rhizoctonia solani [2]; 20 to 23 days, 22°-25° C): 20 mg of active substance per lit
C[S+]([O-])c1nnc(C(F)(F)Cl)s1 (stereo not shown) [Compound 55] | 10 mg of active substance per lit | – | – | – | – | – | – | – | – | – | – | – | – | – | – | – | – | – | – | – | Limit concentration of the fungicidal effectiveness (Rhizoctonia solani [2]; 20 to 23 days, 22°-25° C): 10 mg of active substance per lit
O=[N+]([O-])c1c(Cl)c(Cl)c(Cl)c(Cl)c1Cl [Pentachloronitrobenzene, pentachloronitrobenzene, reference compound] | insufficient | – | – | – | – | – | – | – | – | – | – | – | – | – | – | – | – | – | – | – | minimal effective concentration (Rhizoctonia solani [2]): 75 µg/mL; Weight of fresh plant (Rhizoctonia solani [4]; [17]): 4 g; Number of sound peas after 3 wks. (Rhizoctonia solani [4]; [17]): 4; Weight of fresh plant (Rhizoctonia solani [4]; [18]): 15 g; Number of sound peas after 3 wks. (Rhizoctonia solani [4]; [18]): 25
